Read-outs that look alike come from different tables or passages of the source.
Test system: H9 embryonic stem cells
Type: cell-based, human
Conditions: DE treatment in low serum
Description: Controls for each group included cells plated on […]-coated dishes and cultured in MEF-conditioned medium or cells plated on MEFs and cultured in ES medium. All groups contained three biological replicates and each biological replicate was repeated on two separate gene chips.
Sample preparation, hybridization, and image analysis were performed according to the Affymetrix Human Genome U133 Plus 2.0 Array. Following normalization and a log transformation, data analysis was performed using OmniViz® software (MA) and […] (VizXLabs, WA). Significant differences in gene expression between the samples were evaluated using analysis of variance and an F-test with adjusted P-value (Benjamini and
Hochberg correction) of ≦b 0.05. Only genes with a present call in at least one group were included in the analysis.

## Activin A: a member of the TGFβ superfamily; R&D Systems; Group 2 = Activin A (100 ng/ml)
On MATRIGEL
  mean normalized intensity (log format), gene: DKFZP566K1924 protein: 2.882
  mean normalized intensity (log format), gene: ESTs (r2006): 1.5857
  mean normalized intensity (log format), gene: ESTs (r2025): 1.531
  mean normalized intensity (log format), gene: ESTs (r2032): 0.1336
  mean normalized intensity (log format), gene: ESTs (r2038): 3.262
  mean normalized intensity (log format), gene: ESTs (r2134): −1.3795
  mean normalized intensity (log format), gene: ESTs (r2148): 4.454
  mean normalized intensity (log format), gene: ESTs, Moderately similar to ALU2_HUMAN ALU SUBFAMILY SB SEQUENCE CONTAMINATION WARNING ENTRY (H. sapiens): 4.241
  mean normalized intensity (log format), gene: H. sapiens mRNA for B-HLH DNA binding protein.: 5.43
  mean normalized intensity (log format), gene: Homo sapiens BCL2-interacting killer (apoptosis-inducing) (BIK), mRNA.: 4.3
  mean normalized intensity (log format), gene: Homo sapiens Charot-Leyden crystal protein (CLC), mRNA.: 3.301
  mean normalized intensity (log format), gene: Homo sapiens HES-related repressor protein 1 HERP1 mRNA, complete cds.: 2.806
  mean normalized intensity (log format), gene: Homo sapiens HSPC156 protein (HSPC156), mRNA.: 0.7862
  mean normalized intensity (log format), gene: Homo sapiens KIAA0469 gene product (KIAA0469), mRNA.: 4.031
  mean normalized intensity (log format), gene: Homo sapiens PNAS-123 mRNA, complete cds: 1.597
  mean normalized intensity (log format), gene: Homo sapiens Wilms tumor 1 (WT1), transcript variant D, mRNA.: 2.405
  mean normalized intensity (log format), gene: Homo sapiens cDNA FLJ11398 fis, clone HEMBA1000637.: 2.5268
  mean normalized intensity (log format), gene: Homo sapiens cDNA: FLJ22547 fis, clone HSI00356: 4.294
  mean normalized intensity (log format), gene: Homo sapiens cadherin 6, type 2, K-cadherin (fetal kidney) (CDH6), mRNA.: 0.8248
  mean normalized intensity (log format), gene: Homo sapiens chorionic somatomammotropin hormone 2 (CSH2), transcript variant 1, mRNA.: 1.124
  mean normalized intensity (log format), gene: Homo sapiens chorionic somatomammotropin hormone 2 (CSH2), transcript variant 4, mRNA.: 0.8122
  mean normalized intensity (log format), gene: Homo sapiens galanin receptor 1 (GALR1), mRNA.: 2.507
  mean normalized intensity (log format), gene: Homo sapiens growth hormone 2 (GH2), transcript variant 2, mRNA.: 0.9226
  mean normalized intensity (log format), gene: Homo sapiens hypothetical protein FLJ20075 (FLJ20075), mRNA.: −0.3592
  mean normalized intensity (log format), gene: Homo sapiens mRNA for SCCA2b, complete cds.: 3.329
  mean normalized intensity (log format), gene: Homo sapiens mRNA; cDNA DKFZp586P1124 (from clone DKFZp586P1124): 0.4856
  mean normalized intensity (log format), gene: Homo sapiens methyl-CpG binding protein MBD2 (MBD2) mRNA, complete cds.: 0.4906
  mean normalized intensity (log format), gene: Homo sapiens tachykinin, precursor 1 (TAC1), transcript variant beta, mRNA.: 2.773
  mean normalized intensity (log format), gene: Homo sapiens testis expressed sequence 14 (TEX14), mRNA.: 3.512
  mean normalized intensity (log format), gene: Homo sapiens, Similar to LIM homeobox protein 8, clone IMAGE: 4839343, mRNA.: −0.06288
  mean normalized intensity (log format), gene: Homo sapiens, Similar to cadherin 6, type 2, K-cadherin (fetal kidney), clone MGC: 1470, mRNA, complete cds.: 2.547
  mean normalized intensity (log format), gene: Homo sapiens, Similar to hypothetical protein FLJ10058, clone MGC: 34305 IMAGE: 5167647, mRNA, complete cds.: 1.698
  mean normalized intensity (log format), gene: Homo sapiens, Similar to hypothetical protein FLJ32001, clone MGC: 39559 IMAGE: 4828136, mRNA, complete cds.: 0.5207
  mean normalized intensity (log format), gene: Homo sapiens, clone IMAGE: 4067166, mRNA: 0.1959
  mean normalized intensity (log format), gene: Homo sapiens, clone IMAGE: 4828836, mRNA.: 0.9729
  mean normalized intensity (log format), gene: Homo sapiens, serine (or cysteine) proteinase inhibitor, clade B (ovalbumin), member 3, clone MGC: 12244, mRNA, complete cds.: 1.969
  mean normalized intensity (log format), gene: Human mRNA upregulated during camptothecin-induced apoptosis of U937 cells.: 0.4945
  mean normalized intensity (log format), gene: Human platelet-derived growth factor alpha-receptor (PDGFRA) mRNA, exons 13-16: 2.445
  mean normalized intensity (log format), gene: KIAA1151 protein: 0.6425
  mean normalized intensity (log format), gene: caldesmon 1: 7.092
  mean normalized intensity (log format), gene: nuclear receptor subfamily 1, group I, member 3: 1.779
  mean normalized intensity (log format), gene: paternally expressed 3 (r2033): 2.876
  mean normalized intensity (log format), gene: paternally expressed 3 (r2093): 2.874
On MEFS
  mean normalized intensity (log format), gene: DKFZP566K1924 protein: 1.391
  mean normalized intensity (log format), gene: ESTs (r2006): −1.3
  mean normalized intensity (log format), gene: ESTs (r2025): 1.373
  mean normalized intensity (log format), gene: ESTs (r2032): −1.566
  mean normalized intensity (log format), gene: ESTs (r2038): 1.5682
  mean normalized intensity (log format), gene: ESTs (r2134): −0.9461
  mean normalized intensity (log format), gene: ESTs (r2148): 5.334
  mean normalized intensity (log format), gene: ESTs, Moderately similar to ALU2_HUMAN ALU SUBFAMILY SB SEQUENCE CONTAMINATION WARNING ENTRY (H. sapiens): 3.874
  mean normalized intensity (log format), gene: H. sapiens mRNA for B-HLH DNA binding protein.: 3.451
  mean normalized intensity (log format), gene: Homo sapiens BCL2-interacting killer (apoptosis-inducing) (BIK), mRNA.: 3.562
  mean normalized intensity (log format), gene: Homo sapiens Charot-Leyden crystal protein (CLC), mRNA.: 2.1096
  mean normalized intensity (log format), gene: Homo sapiens HES-related repressor protein 1 HERP1 mRNA, complete cds.: 2.406
  mean normalized intensity (log format), gene: Homo sapiens HSPC156 protein (HSPC156), mRNA.: 1.296
  mean normalized intensity (log format), gene: Homo sapiens KIAA0469 gene product (KIAA0469), mRNA.: 2.565
  mean normalized intensity (log format), gene: Homo sapiens PNAS-123 mRNA, complete cds: 1.847
  mean normalized intensity (log format), gene: Homo sapiens Wilms tumor 1 (WT1), transcript variant D, mRNA.: −2.435
  mean normalized intensity (log format), gene: Homo sapiens cDNA FLJ11398 fis, clone HEMBA1000637.: 1.849
  mean normalized intensity (log format), gene: Homo sapiens cDNA: FLJ22547 fis, clone HSI00356: 2.095
  mean normalized intensity (log format), gene: Homo sapiens cadherin 6, type 2, K-cadherin (fetal kidney) (CDH6), mRNA.: −0.8763
  mean normalized intensity (log format), gene: Homo sapiens chorionic somatomammotropin hormone 2 (CSH2), transcript variant 1, mRNA.: 2.616
  mean normalized intensity (log format), gene: Homo sapiens chorionic somatomammotropin hormone 2 (CSH2), transcript variant 4, mRNA.: 2.218
  mean normalized intensity (log format), gene: Homo sapiens galanin receptor 1 (GALR1), mRNA.: −0.338
  mean normalized intensity (log format), gene: Homo sapiens growth hormone 2 (GH2), transcript variant 2, mRNA.: 1.4679
  mean normalized intensity (log format), gene: Homo sapiens hypothetical protein FLJ20075 (FLJ20075), mRNA.: −0.06528
  mean normalized intensity (log format), gene: Homo sapiens mRNA for SCCA2b, complete cds.: 0.568
  mean normalized intensity (log format), gene: Homo sapiens mRNA; cDNA DKFZp586P1124 (from clone DKFZp586P1124): −3.094

— patent US20100255580A1, “Differentiation of Human Embryonic Stem Cells” (LIFESCCAN, INC., priority 2007, published 2010)
